Here are results for four molecules from paper PMC9951321.

≈ marks a conversion by molar mass, not a printed value. Where a SMILES comes first, the peptide text is derived from it.

As a reminder, the MIC is the smallest concentration in the dilution series that meets the test's criterion for growth inhibition. Lower therefore signals a more susceptible organism.

Assay [1] has as its system E. coli. Put plainly: PGN integrity assay (susceptibility to lysozyme-mediated lysis). Conditions: cells grown with 0.625 µmol L^−1 (1/4 × MIC); 1 mg mL^−1 lysozyme, within 20 min incubation, 25 °C.
Assay [2] deals with E. coli. The assay can be described thus: K+ out-diffusion, atomic absorption spectrometry. The settings on record: 4 × MIC, 1 h; untreated 13.47 µg mL^−1; n = 3.
In assay [3] the test system is Staphylococcus aureus ATCC 25923. The assay can be described thus: MIC, broth micro-dilution. Type of assay: cell-based.
Assay [4] has as its system Salmonella Typhimurium ATCC 14028. Put plainly: MIC, broth micro-dilution. Type of assay: cell-based. Conditions: 24 h. A general note: Dilution methods test growth across graded concentrations, often in twofold steps.
Assay [5] relates to Klebsiella pneumoniae ATCC 13883. Put plainly: MIC, broth micro-dilution. Type of assay: cell-based.
A further assay has as its system Escherichia coli MDR. The assay can be described thus: MIC, broth micro-dilution. The settings on record: for MIC: 24 h; for MIC against E. coli MDR relative to wild-type E. coli strains: fold higher than those of wild-type E. coli strains. Type of assay: cell-based.
The test system of assay [6] is Escherichia coli ATCC 8739. The assay can be described thus: MIC, broth micro-dilution. It is filed as cell-based.
The subject of assay [7] is Staphylococcus aureus MRSA ATCC 43300. The assay can be described thus: MIC, broth micro-dilution. The settings on record: 24 h. It is filed as cell-based.
In assay [8] the test system is Enterobacter cloacae ATCC 13047. The assay can be described thus: MIC, broth micro-dilution. It is filed as cell-based.
Assay [9] concerns Acinetobacter baumannii ATCC 17978. Put plainly: MIC, broth micro-dilution. It is filed as cell-based.
Assay [10] concerns Pseudomonas aeruginosa ATCC 10145. The assay can be described thus: MIC, broth micro-dilution. Type of assay: cell-based.
The subject of assay [11] is Enterococcus faecium ATCC 19434. Put plainly: MIC, broth micro-dilution. It is filed as cell-based.

In the case of `CC[C@H](C)[C@H](NC(=O)[C@@H](N)CCCNC(=N)N)C(=O)N[C@@H](CCCCN)C(=O)N[C@H](C(=O)N[C@@H](C)C(=O)N[C@H](C(=O)N[C@@H](Cc1c[nH]c2ccccc12)C(=O)N[C@@H](CCCNC(=N)N)C(=O)N[C@@H](CC(C)C)C(=O)N[C@@H](C)C(=O)N[C@@H](CC(C)C)C(=O)N[C@@H](CCCNC(=N)N)C(=O)N[C@@H](Cc1c[nH]c2ccccc12)C(=O)N[C@@H](CC(C)C)C(=O)N[C@@H](CCCCN)C(=O)N[C@@H](CC(C)C)C(=O)O)[C@@H](C)O)[C@@H](C)O` [KTA] (H-RIKTATWRLALRWLKL-OH), the “Reduction of OD600 nm of treated cells with lysozyme” value in the assay with E. coli [1] is recorded as 17.2%. In addition, in the assay on E. coli [2], the “Extracellular K^+ content” value amounted to 18.92 µg/mL.

In the case of `CC[C@H](C)[C@H](NC(=O)[C@@H](N)CCCNC(=N)N)C(=O)N[C@@H](CCCCN)C(=O)N[C@H](C(=O)N[C@@H](CCCNC(=N)N)C(=O)N[C@H](C(=O)N[C@@H](Cc1c[nH]c2ccccc12)C(=O)N[C@@H](CCCNC(=N)N)C(=O)N[C@@H](CC(C)C)C(=O)N[C@@H](C)C(=O)N[C@@H](CC(C)C)C(=O)N[C@@H](CCCNC(=N)N)C(=O)N[C@@H](Cc1c[nH]c2ccccc12)C(=O)N[C@@H](CC(C)C)C(=O)N[C@@H](CCCCN)C(=O)N[C@@H](CC(C)C)C(=O)O)[C@@H](C)O)[C@@H](C)O` [KTR] (H-RIKTRTWRLALRWLKL-OH), in the assay with E. coli [2], the “Extracellular K^+ content” value amounted to 21.53 µg/mL.

`NC[C@H]1O[C@H](O[C@H]2[C@H](O)[C@@H](O[C@H]3O[C@H](CO)[C@@H](O)[C@H](N)[C@H]3O)[C@H](N)C[C@@H]2N)[C@H](N)C[C@@H]1O` [Tob, tobramycin]: the MIC stood at 17.1 µM (≈ 7.99 µg/mL) in [3] (Staphylococcus aureus, ATCC25923, 24 h); 17.1 µM (≈ 7.99 µg/mL) in assay [4] (Salmonella enterica); 2.1 µM (≈ 0.982 µg/mL) in assay [5] (Klebsiella pneumoniae, ATCC13883, 24 h); 548 µM (≈ 256 µg/mL) in the assay with Escherichia coli MDR (Escherichia coli); 4.3 µM (≈ 2.01 µg/mL) in assay [6] (Escherichia coli, ATCC8739, 24 h); 548 µM (≈ 256 µg/mL) in assay [7] (Staphylococcus aureus). In addition, the MIC amounted to 2.1 µM (≈ 0.982 µg/mL) in assay [8] (Enterobacter cloacae, ATCC13047, 24 h); 2.1 µM (≈ 0.982 µg/mL) in [9] (Acinetobacter baumannii, ATCC17978, 24 h); 4.3 µM (≈ 2.01 µg/mL) in assay [10] (Pseudomonas aeruginosa, ATCC10145, 24 h); 274 µM (≈ 128 µg/mL) in [11] (Enterococcus faecium, ATCC19434, 24 h). In addition, the “MIC against E. coli MDR relative to wild-type E. coli strains” value against Escherichia coli MDR is listed as “at least 128 fold”.

Take colistin: the minimum inhibitory concentration (MIC) is 12.8 µM in [3] (Staphylococcus aureus ATCC 25923, broth micro-dilution in MHB, 37 °C, 24 h, triplicate); 6.4 µM in assay [4] (Salmonella Typhimurium ATCC 14028, broth micro-dilution in MHB, 37 °C, triplicate); 12.8 µM in [5] (Klebsiella pneumoniae ATCC 13883, broth micro-dilution in MHB, 37 °C, 24 h, triplicate); 102.1 µM in the assay with Escherichia coli MDR (Escherichia coli MDR, multi-drug resistant clinical isolate, broth micro-dilution in MHB, 37 °C, triplicate); 3.2 µM in assay [6] (Escherichia coli ATCC 8739, broth micro-dilution in MHB, 37 °C, 24 h, triplicate); 51.1 µM in [7] (Staphylococcus aureus MRSA ATCC 43300, broth micro-dilution in MHB, 37 °C, triplicate). Besides, the minimal inhibitory concentration (MIC) in assay [8] (Enterobacter cloacae ATCC 13047, broth micro-dilution in MHB, 37 °C, 24 h, triplicate) stood at 204.2 µM; in [9] (Acinetobacter baumannii ATCC 17978, broth micro-dilution in MHB, 37 °C, 24 h, triplicate) it was 1.6 µM; in [10] (Pseudomonas aeruginosa ATCC 10145, broth micro-dilution in MHB, 37 °C, 24 h, triplicate), 6.4 µM; in assay [11] (Enterococcus faecium ATCC 19434, broth micro-dilution in MHB, 37 °C, 24 h, triplicate) it was 204.2 µM. In addition, the “MIC against E. coli MDR relative to wild-type E. coli strains” value against Escherichia coli MDR was not below 32 fold.
